Measurements as given in ChEMBL document CHEMBL1201862, “PubChem BioAssay data set” (2004).
Calls of active or inactive are those of the source. Unless noted, no cut-off for these calls is given here.

Experiments:
[1] = biological target: T1, E3 ubiquitin-protein ligase XIAP (Homo sapiens, UniProt P98170); test: small molecules displacing peptide from XIAP – biochemical, IAP family, fluorescence polarization (AID 1018); format: functional
[2] = Luminescence Cell-Based Dose Confirmation HTS to Identify Inhibitors of Platelet Dense Granule Release. [Related pubchem assays: 1663 (Primary HTS), 1678 (Summary of Project)]; format: functional
[3] = biological target: Luciferin 4-monooxygenase (Photinus pyralis, UniProt P08659); test: inhibition of purified Photinus pyralis luciferase – biochemical, luminescence, dose response (AID 1891)
[4] = biological target: T1, E3 ubiquitin-protein ligase XIAP; test: Counter Screen using XIAP-Bir3 for Chemical Antagonists of Bir1/2 domains of IAP-family anti-apoptotic proteins. [Related pubchem assays (depositor defined):AID1018, AID1449, AID1514, AID1638, AID1749, AID1750, AID488957, AID488963]
[5] = biological target: T2, Tyrosine-protein phosphatase non-receptor type 7 (Homo sapiens, UniProt P35236); test: redox-active compounds inhibiting HePTP phosphatase – biochemical, fluorescence, mechanism study (AID 2068); format: functional
T2 sequence (P35236 whole entry): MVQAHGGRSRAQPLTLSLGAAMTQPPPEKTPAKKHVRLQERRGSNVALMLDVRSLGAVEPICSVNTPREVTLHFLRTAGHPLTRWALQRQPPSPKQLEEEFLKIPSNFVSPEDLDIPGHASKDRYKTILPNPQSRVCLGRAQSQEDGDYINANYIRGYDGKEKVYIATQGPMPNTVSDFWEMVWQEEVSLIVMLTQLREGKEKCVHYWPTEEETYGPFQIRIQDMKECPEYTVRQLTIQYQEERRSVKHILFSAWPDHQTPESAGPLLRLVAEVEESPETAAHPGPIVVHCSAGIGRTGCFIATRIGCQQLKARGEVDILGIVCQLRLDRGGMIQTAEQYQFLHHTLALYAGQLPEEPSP

[6] = biological target: T3, Kappa-type opioid receptor (Homo sapiens, UniProt P41145); test: SAR analysis of small molecule antagonists of the kappa opioid receptor via a luminescent beta-arrestin assay - Set 4. [Related pubchem assays (depositor defined):AID1777, AID1778, AID1785, AID1786, AID1966, AID2133, AID2136, AID2285]; format: functional
[7] = biological target: Delta-type opioid receptor (Homo sapiens, UniProt P41143); test: SAR Analysis of Antagonists of the DOR Receptor using an Image-Based Assay - Set 3. [Related pubchem assays (depositor defined):AID1777, AID1785]; format: functional;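 note: U2OS cells expressing DOR1 and beta-arrestin GFP stimulated with 100 nM SNC80; imaging of GFP-tagged beta-arrestin moving into spots after receptor activation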
[8] = biological target: T3, Kappa-type opioid receptor; test: SAR analysis of Antagonists of the Kappa Opioid Receptor (KOR) using an Image-Based Assay - Set 4. [Related pubchem assays (depositor defined):AID1777, AID1785]; format: functional
[9] = biological target: Mu-type opioid receptor (Homo sapiens, UniProt P35372); test: SAR Analysis of Antagonists of the MOR Receptor using an Image-Based Assay - Set 3. [Related pubchem assays (depositor defined):AID1777, AID1785, AID1786, AID1966, AID2133, AID2136, AID2284, AID2285, AID2420]; format: functional
[10] = biological target: Induced myeloid leukemia cell differentiation protein Mcl-1 (Homo sapiens, UniProt Q07820); format: functional
[11] = biological target: T4, Heat shock factor protein 1 (Mus musculus, UniProt P38532); test: enhancement of HSF1-driven luciferase signal – cell-based, NIH3T3, luminescence, dose retest, confirmation (AID 435004); format: functional;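 note: stress induced by proteasome inhibitor MG132 added 30 min after compound; luciferase reporter driven by HSF1 response element in NIH3T3 cells; actives raise luminescence as potentiators of the MG132 stress response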
T4 sequence (P38532 whole entry): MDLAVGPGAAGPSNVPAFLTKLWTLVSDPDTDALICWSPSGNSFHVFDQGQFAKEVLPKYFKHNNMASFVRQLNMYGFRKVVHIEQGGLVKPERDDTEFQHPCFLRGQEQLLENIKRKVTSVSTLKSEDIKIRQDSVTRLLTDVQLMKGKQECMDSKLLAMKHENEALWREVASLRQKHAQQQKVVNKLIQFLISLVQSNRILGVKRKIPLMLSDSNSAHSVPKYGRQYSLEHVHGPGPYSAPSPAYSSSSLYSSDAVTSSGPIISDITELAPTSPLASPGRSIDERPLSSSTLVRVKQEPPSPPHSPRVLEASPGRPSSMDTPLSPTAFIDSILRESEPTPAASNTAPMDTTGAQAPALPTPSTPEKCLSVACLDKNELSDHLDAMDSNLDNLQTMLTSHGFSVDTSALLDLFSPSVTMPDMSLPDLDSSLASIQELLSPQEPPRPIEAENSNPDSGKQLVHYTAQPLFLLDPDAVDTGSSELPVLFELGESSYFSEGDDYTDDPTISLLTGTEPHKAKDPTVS

[12] = biological target: Troponin, cardiac muscle (Homo sapiens, UniProt P19429+P45379+P63316); test: Fluorescence-based biochemical high throughput dose response assay for activators of the calcium sensitivity of cardiac Regulated Thin Filaments (RTF). [Related pubchem assays (depositor defined):AID493008, AID493018, AID504382, AID504383]; format: protein-complex assay
[13] = biological target: NADPH oxidase 4 (Homo sapiens, UniProt Q9NPH5); test: PubChem AID 435013
[14] = biological target: NADPH oxidase 2 (Homo sapiens, UniProt P04839); test: PubChem AID 435013
[15] = biological target: NADPH oxidase 1 (Homo sapiens, UniProt Q9Y5S8); test: Late stage results from the probe development effort to identify inhibitors of NOX1: HEK/293 IC50. [Related pubchem assays: 1796 (Summary AID (NOX1)), 2752 (Primary screen (NOX1 inhibitors, synthesized analogs set 2)), 2664 (Primary screen (NOX1 inhibitors, synthesized analogs)), 1792 (Primary Screen (NOX1)), 2545 (Confirmation screen (NOX1 …; format: functional
[16] = biological target: NADPH oxidase 3 (Homo sapiens, UniProt Q9HBY0); test: PubChem AID 435013
NADPH oxidase 3, sequence (Q9HBY0 whole entry): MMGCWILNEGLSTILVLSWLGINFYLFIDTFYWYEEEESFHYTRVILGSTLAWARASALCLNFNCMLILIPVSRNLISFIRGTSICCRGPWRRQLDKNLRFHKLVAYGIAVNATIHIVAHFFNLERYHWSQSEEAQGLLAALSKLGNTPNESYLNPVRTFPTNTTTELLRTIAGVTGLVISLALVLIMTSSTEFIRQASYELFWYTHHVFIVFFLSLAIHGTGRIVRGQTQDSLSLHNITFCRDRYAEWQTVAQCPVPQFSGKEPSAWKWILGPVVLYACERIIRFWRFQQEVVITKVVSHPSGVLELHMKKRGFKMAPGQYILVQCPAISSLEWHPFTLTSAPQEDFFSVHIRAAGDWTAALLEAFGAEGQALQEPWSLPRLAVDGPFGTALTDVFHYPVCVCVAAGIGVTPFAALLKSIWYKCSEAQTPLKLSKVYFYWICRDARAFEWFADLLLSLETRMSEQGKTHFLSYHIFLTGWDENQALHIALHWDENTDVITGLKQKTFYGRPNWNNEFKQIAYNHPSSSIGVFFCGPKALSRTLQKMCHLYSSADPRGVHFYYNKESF

T3 sequence (P41145 whole entry): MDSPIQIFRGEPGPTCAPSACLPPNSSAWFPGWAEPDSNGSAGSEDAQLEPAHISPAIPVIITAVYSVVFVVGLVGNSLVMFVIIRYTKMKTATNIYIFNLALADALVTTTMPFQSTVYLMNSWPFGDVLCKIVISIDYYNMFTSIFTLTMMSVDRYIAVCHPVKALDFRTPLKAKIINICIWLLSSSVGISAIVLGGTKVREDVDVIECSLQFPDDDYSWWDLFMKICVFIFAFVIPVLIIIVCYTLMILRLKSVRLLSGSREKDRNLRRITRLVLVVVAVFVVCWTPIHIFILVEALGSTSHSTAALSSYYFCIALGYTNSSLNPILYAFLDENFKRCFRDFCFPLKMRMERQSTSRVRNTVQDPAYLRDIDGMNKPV
T1 sequence (P98170 whole entry): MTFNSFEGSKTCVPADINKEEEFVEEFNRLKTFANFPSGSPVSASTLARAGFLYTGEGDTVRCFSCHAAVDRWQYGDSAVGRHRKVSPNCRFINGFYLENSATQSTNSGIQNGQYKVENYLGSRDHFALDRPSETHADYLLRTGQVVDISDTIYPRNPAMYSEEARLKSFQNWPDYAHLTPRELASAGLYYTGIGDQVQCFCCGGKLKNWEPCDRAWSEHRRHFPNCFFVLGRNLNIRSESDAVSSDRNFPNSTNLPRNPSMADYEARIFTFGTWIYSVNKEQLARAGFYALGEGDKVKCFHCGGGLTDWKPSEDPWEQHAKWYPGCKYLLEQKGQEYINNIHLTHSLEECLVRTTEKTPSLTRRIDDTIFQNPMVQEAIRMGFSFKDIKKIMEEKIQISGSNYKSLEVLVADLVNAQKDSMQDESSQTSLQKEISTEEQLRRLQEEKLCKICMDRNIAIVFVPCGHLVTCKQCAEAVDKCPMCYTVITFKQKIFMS
Delta-type opioid receptor, sequence (P41143 whole entry): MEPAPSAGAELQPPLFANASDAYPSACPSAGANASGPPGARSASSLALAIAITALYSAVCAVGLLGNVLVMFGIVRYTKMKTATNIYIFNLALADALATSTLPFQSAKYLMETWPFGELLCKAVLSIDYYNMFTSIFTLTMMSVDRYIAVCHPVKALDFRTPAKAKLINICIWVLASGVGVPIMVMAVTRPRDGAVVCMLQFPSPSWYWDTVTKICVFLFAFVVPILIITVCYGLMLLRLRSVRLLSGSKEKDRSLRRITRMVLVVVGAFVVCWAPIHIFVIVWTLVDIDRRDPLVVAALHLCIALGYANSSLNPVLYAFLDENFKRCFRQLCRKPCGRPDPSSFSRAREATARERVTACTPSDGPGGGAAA
Induced myeloid leukemia cell differentiation protein Mcl-1, sequence (Q07820 whole entry): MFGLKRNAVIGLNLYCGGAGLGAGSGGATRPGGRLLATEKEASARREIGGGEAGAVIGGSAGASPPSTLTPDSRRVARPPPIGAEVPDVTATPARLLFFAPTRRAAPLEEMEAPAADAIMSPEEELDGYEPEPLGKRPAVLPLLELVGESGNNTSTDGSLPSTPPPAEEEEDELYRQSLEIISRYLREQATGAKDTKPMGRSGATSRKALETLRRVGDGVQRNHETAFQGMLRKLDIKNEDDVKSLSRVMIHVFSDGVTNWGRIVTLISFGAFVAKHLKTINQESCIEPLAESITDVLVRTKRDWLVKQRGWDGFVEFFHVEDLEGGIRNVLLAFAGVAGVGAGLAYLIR
NADPH oxidase 4, sequence (Q9NPH5 whole entry): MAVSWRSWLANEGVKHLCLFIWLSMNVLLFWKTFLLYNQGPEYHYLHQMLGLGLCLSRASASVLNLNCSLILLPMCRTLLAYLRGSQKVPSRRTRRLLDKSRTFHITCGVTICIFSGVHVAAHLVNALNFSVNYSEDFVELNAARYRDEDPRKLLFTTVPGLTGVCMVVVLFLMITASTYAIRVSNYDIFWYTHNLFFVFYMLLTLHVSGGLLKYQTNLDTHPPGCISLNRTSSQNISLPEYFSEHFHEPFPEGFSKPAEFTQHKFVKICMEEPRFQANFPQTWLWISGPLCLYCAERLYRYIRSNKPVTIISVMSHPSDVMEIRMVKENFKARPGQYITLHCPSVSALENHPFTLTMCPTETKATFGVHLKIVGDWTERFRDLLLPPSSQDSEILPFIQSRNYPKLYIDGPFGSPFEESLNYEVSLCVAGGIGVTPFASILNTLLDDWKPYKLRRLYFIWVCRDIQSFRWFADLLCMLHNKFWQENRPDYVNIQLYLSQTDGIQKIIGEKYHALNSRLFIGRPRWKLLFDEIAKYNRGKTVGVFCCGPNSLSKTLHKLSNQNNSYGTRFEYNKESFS
NADPH oxidase 1, sequence (Q9Y5S8 whole entry): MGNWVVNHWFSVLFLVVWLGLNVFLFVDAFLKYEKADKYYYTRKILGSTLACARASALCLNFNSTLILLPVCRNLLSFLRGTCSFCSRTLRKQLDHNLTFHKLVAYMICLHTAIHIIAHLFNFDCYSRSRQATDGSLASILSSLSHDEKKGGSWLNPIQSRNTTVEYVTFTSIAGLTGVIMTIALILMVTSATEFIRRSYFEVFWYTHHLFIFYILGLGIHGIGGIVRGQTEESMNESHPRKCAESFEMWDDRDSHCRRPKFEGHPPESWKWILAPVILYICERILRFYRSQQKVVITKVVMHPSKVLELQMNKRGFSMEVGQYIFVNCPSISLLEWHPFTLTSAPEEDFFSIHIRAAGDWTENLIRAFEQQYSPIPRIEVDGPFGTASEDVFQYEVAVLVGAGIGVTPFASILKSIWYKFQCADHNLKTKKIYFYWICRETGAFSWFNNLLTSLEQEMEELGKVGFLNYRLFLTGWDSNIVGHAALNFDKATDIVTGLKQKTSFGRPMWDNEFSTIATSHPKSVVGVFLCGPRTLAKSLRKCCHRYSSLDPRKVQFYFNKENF
Luciferin 4-monooxygenase, sequence (P08659 whole entry): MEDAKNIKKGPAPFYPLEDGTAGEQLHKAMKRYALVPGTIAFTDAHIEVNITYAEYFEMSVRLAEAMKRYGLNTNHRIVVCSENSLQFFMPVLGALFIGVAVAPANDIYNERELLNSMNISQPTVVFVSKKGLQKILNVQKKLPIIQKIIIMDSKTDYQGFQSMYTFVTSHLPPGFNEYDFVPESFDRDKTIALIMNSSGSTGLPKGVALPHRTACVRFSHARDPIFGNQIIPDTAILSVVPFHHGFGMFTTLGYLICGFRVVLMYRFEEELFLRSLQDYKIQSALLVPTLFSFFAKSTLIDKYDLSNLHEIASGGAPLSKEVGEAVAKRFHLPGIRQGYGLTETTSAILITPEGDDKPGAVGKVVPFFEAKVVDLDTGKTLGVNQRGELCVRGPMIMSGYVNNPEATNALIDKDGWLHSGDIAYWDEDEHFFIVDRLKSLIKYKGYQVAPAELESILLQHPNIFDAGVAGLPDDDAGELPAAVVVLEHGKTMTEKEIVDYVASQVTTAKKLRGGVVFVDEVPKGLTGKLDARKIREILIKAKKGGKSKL
Mu-type opioid receptor, sequence (P35372 whole entry): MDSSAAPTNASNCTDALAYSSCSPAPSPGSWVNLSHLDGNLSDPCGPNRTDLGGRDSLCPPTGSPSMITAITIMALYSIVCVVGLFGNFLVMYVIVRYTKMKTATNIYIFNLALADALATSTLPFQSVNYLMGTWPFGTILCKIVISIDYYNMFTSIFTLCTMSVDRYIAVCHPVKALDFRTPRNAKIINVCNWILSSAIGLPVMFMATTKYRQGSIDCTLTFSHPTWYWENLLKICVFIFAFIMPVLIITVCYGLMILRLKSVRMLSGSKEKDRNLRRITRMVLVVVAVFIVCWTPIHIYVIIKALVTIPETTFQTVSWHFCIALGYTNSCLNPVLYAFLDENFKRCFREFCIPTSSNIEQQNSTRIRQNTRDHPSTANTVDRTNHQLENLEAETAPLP
NADPH oxidase 2, sequence (P04839 whole entry): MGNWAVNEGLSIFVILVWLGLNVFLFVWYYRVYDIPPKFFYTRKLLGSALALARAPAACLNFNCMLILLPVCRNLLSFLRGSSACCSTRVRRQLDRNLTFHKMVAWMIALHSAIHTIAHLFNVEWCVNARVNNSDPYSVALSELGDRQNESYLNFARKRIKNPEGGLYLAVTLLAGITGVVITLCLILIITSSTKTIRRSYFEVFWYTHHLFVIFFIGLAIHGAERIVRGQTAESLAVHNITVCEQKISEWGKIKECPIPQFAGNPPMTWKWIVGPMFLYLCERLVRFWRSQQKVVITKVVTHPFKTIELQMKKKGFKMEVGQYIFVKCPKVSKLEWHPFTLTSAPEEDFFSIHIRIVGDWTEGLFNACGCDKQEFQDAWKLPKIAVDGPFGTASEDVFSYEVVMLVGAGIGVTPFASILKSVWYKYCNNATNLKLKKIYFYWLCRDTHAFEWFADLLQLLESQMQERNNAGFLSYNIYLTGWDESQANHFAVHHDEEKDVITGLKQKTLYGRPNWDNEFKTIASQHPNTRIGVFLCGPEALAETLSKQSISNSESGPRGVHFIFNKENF

Cc1ccnc(N2C(=O)c3ccccc3C2O)c1 (stereo unspecified)
IC50 [1]: > 100 µM (not active) | EC50 [2]: 6.49 µM (active) | EC50 [3]: 27.7 µM (active) | IC50 [4]: > 100 µM (inactive)

CCCNC(=O)Nc1ccc2nc(-c3ccco3)c(-c3ccco3)nc2c1
IC50 [5]: 1.01 µM (active)

CCCc1ccc(S(=O)(=O)NCc2ccc(C(=O)NCCN(Cc3ccccc3)C(C)C)cc2)cc1
IC50 [6]: 2 µM (active) | IC50 [7]: > 32 µM (inactive) | IC50 [8]: 2.25 µM (active) | IC50 [9]: > 32 µM (inactive)

COc1ccc(N/C=C2\C(=O)CCc3c2oc2cc(Cl)c(O)c(Cl)c32)cc1
IC50 [10]: 4.32 µM (active) | EC50 [11]: > 260 µM (inactive) | EC50 [12]: 3.93 µM (active)

FC(F)(F)c1ccc2c(c1)Nc1ccccc1S2
IC50 [13]: 5 µM (active) | IC50 [14]: 9 µM (active) | IC50 [15]: 1 µM (active) | IC50 [16]: 7.5 µM (active)
